Patent publication US6686373B2, “Pyrazoloquinolinone derivatives as protein kinase C inhibitors” (Warner-Lambert Company LLC, priority 2001, dated 2004)
Structures can show the parent of a compound that is named as a salt.

Structure (SMILES) | melting point
CN(C)CCOc1ccc(Cc2ccc3[nH]c4cnn(C)c4c(=O)c3c2)cc1.Cl | 235 to 240 °C
Cl.Cn1ncc2[nH]c3ccc(Cc4ccccc4N)cc3c(=O)c21 | 273 °C
Cl.Cn1ncc2[nH]c3ccc(Cc4ccc(CN)cc4)cc3c(=O)c21 | > 300 °C
Cl.Cn1ncc2[nH]c3ccc(Cc4ccccc4CN)cc3c(=O)c21 | > 250 °C
Cl.Cn1ncc2[nH]c3ccc(CCCN)cc3c(=O)c21 | > 300 °C
Cc1ccc2c(c1)c(=O)c1c(cnn1C)n2CCCN(C)C.Cl | 240 °C
Cc1ccc2c(c1)c(=O)c1c(cnn1C)n2CCCCCCN(C)C.Cl | 210 °C
CCN(C)CCCn1c2ccc(C)cc2c(=O)c2c1cnn2C.Cl | 213 °C
Cc1ccc2c(c1)c(=O)c1c(cnn1C)n2CCN.Cl | > 280 °C
Cn1ncc2[nH]c3c(c(=O)c21)CC(Cc1ccc(Cl)cc1)CC3 (stereo not drawn) (as salt: hydrochloride) | 279 °C
Cn1ncc2[nH]c3c(F)cccc3c(=O)c21 [Example 2, 5-FLUORO-1-METHYL-1,4-DIHYDRO-9H-PYRAZOLO[4,3-b]QUINOLIN-9-ONE] | > 300 °C
Cn1ncc2[nH]c3cc(F)ccc3c(=O)c21 [Example 3, 6-FLUORO-1-METHYL-1,4-DIHYDRO-9H-PYRAZOLO[4,3-b]QUINOLIN-9-ONE] | 269 °C
CCc1ccc2[nH]c3cnn(C)c3c(=O)c2c1 [Example 6, 7-ETHYL-1-METHYL-1,4-DIHYDRO-9H-PYRAZOLO[4,3-b]QUINOLIN-9-ONE] | 266 °C
CCc1cccc2c(=O)c3c(cnn3C)[nH]c12 [Example 7, 5-ETHYL-1-METHYL-1,4-DIHYDRO-9H-PYRAZOLO[4,3-b]QUINOLIN-9-ONE] | 254 °C
CCc1ccc2c(=O)c3c(cnn3C)[nH]c2c1 [Example 9, 6-ETHYL-1-METHYL-1,4-DIHYDRO-9H-PYRAZOLO[4,3-b]QUINOLIN-9-ONE] | 263 °C
Cn1ncc2[nH]c3ccc(Cc4ccccc4)cc3c(=O)c21 [Example 11, 7-BENZYL-1-METHYL-1,4-DIHYDRO-9H-PYRAZOLO[4,3-b]QUINOLIN-9-ONE] | 282 °C
Cn1ncc2[nH]c3ccc(Cc4ccccc4Cl)cc3c(=O)c21 [Example 15, 7-(2-CHLOROBENZYL)-1-METHYL-1,4-DIHYDRO-9H-PYRAZOLO[4,3-b]QUINOLIN-9-ONE] | 278 °C
Cn1ncc2[nH]c3ccc(Cc4cccc(O)c4)cc3c(=O)c21 [Example 20, 7-(3-HYDROXYBENZYL)-1-METHYL-1,4-DIHYDRO-9H-PYRAZOLO[4,3-b]QUINOLIN-9-ONE] | > 270 °C
Cn1ncc2[nH]c3ccc(Cc4cccc([N+](=O)[O-])c4)cc3c(=O)c21 [Example 23, 1-METHYL-7-(3-NITROBENZYL)-1,4-DIHYDRO-9H-PYRAZOLO[4,3-b]QUINOLIN-9-ONE] | 279 to 283 °C
Cn1ncc2[nH]c3ccc(Cc4ccc(C#N)cc4)cc3c(=O)c21 [Example 26, 4-[(1-METHYL-9-OXO-4,9-DIHYDRO-1H-PYRAZOLO[4,3-b]QUINOLIN-7-YL)METHYL]BENZONITRILE] | 291 °C
Cn1ncc2[nH]c3ccc(Cc4cccc(C(N)=O)c4)cc3c(=O)c21 [Example 29, 3-[(1-METHYL-9-OXO-4,9-DIHYDRO-1H-PYRAZOLO[4,3-b]QUINOLIN-7-YL)METHYL]BENZAMIDE] | > 300 °C
Cn1ncc2[nH]c3ccc(NC(=O)c4ccccc4)cc3c(=O)c21 [Example 46, N-(1-METHYL-9-OXO-4,9-DIHYDRO-1H-PYRAZOLO[4,3-b]QUINOLIN-7-YL)BENZAMIDE] | > 300 °C
Cc1ccc2c(c1)c(=O)c1c(cnn1C)n2CC#N [Example 51, (1,7-DIMETHYL-9-OXO-1,9-DIHYDRO-4H-PYRAZOLO[4,3-b]QUINOLIN-4-YL)ACETONITRILE] | 214 to 219 °C
Cc1ccc2c(c1)c(=O)c1c(cnn1C)n2CC(N)=O [Example 52, 2-(1,7-DIMETHYL-9-OXO-1,9-DIHYDRO-4H-PYRAZOLO[4,3-b]QUINOLIN-4-YL)ACETAMIDE] | 247 to 252 °C
Cn1ncc2[nH]c3c(c(=O)c21)CCCC3 [Example 67, 1-METHYL-5,6,7,8-TETRAHYDRO-1H-PYRAZOLO[4,3-b]QUINOLIN-9-OL] | > 300 °C

Further lines, results first:

melting point | Structure (SMILES)
287 °C (dec.) | Cl.Cn1ncc2[nH]c3ccc(Cc4cccc(N)c4)cc3c(=O)c21
> 300 °C | Cl.Cn1ncc2[nH]c3ccc(Cc4cccc(CN)c4)cc3c(=O)c21
259 °C | Cl.Cn1ncc2[nH]c3ccc(Cc4cccnc4)cc3c(=O)c21
80 to 82 °C | CCCCCCn1c2ccc(C)cc2c(=O)c2c1cnn2C
255 °C | Cc1ccc2c(c1)c(=O)c1c(cnn1C)n2CCN(C)C.Cl
> 250 °C | Cn1ncc2[nH]c3c(c(=O)c21)CC(Cc1ccccc1)CC3 (stereo not drawn) (as salt: hydrochloride)
301 °C | Cn1ncc2[nH]c3ccc(F)cc3c(=O)c21 [Example 1, 7-FLUORO-1-METHYL-1,4-DIHYDRO-9H-PYRAZOLO[4,3-b]QUINOLIN-9-ONE]
> 300 °C | Cn1ncc2[nH]c3cccc(F)c3c(=O)c21 [Example 4, 8-FLUORO-1-METHYL-1,4-DIHYDRO-9H-PYRAZOLO[4,3-b]QUINOLIN-9-ONE]
287 °C | Cn1ncc2[nH]c3c(Br)cccc3c(=O)c21 [Example 5, 5-BROMO-1-METHYL-1,4-DIHYDRO-9H-PYRAZOLO[4,3-b]QUINOLIN-9-ONE]
250 °C | CCc1cccc2[nH]c3cnn(C)c3c(=O)c12 [Example 8, 8-ETHYL-1-METHYL-1,4-DIHYDRO-9H-PYRAZOLO[4,3-b]QUINOLIN-9-ONE]
> 300 °C | Cc1ccc2[nH]c3c(N)nn(C)c3c(=O)c2c1 [Example 12, 3-AMINO-1,7-DIMETHYL-1,4-DIHYDRO-9H-PYRAZOLO[4,3-b]QUINOLIN-9-ONE]
248 to 249 °C | COc1ccc(Cc2ccc3[nH]c4cnn(C)c4c(=O)c3c2)cc1 [Example 16, 7-(4-METHOXYBENZYL)-1-METHYL-1,4-DIHYDRO-9H-PYRAZOLO[4,3-b]QUINOLIN-9-ONE]
255 °C | COc1ccccc1Cc1ccc2[nH]c3cnn(C)c3c(=O)c2c1 [Example 21, 7-(2-METHOXYBENZYL)-1-METHYL-1,4-DIHYDRO-9H-PYRAZOLO[4,3-b]QUINOLIN-9-ONE]
275 °C | Cn1ncc2[nH]c3ccc(Cc4cccc(C#N)c4)cc3c(=O)c21 [Example 28, 3-[(1-METHYL-9-OXO-4,9-DIHYDRO-1H-PYRAZOLO[4,3-b]QUINOLIN-7-YL)METHYL]BENZONITRILE]
> 300 °C | Cn1ncc2[nH]c3ccc(Cc4cccc(C(=O)O)c4)cc3c(=O)c21 [Example 30, 3-[(1-METHYL-9-OXO-4,9-DIHYDRO-1H-PYRAZOLO[4,3-b]QUINOLIN-7-YL)METHYL]BENZOIC ACID]
> 300 °C | Cn1ncc2[nH]c3ccc(Cc4ccccc4C(N)=O)cc3c(=O)c21 [Example 32, 2-[(1-METHYL-9-OXO-4,9-DIHYDRO-1H-PYRAZOLO[4,3-b]QUINOLIN-7-YL)METHYL]BENZAMIDE]
> 300 °C | Cn1ncc2[nH]c3cccc(-c4ccc(O)cc4)c3c(=O)c21 [Example 38, 8-(4-HYDROXYPHENYL)-1-METHYL-1,4-DIHYDRO-9H-PYRAZOLO[4,3-b]QUINOLIN-9-ONE]
> 300 °C | Cn1ncc2[nH]c3cccc(-c4cccc(O)c4)c3c(=O)c21 [Example 39, 8-(3-HYDROXYPHENYL)-1-METHYL-1,4-DIHYDRO-9H-PYRAZOLO[4,3-b]QUINOLIN-9-ONE]
> 250 °C | Cn1ncc2[nH]c3ccc(-c4cccc(O)c4)cc3c(=O)c21 [Example 40, 7-[3-HYDROXYPHENYL]-1-METHYL-1,4-DIHYDRO-9H-PYRAZOLO[4,3-b]QUINOLIN-9-ONE]
262 °C | CCCCn1c2ccc(C)cc2c(=O)c2c1cnn2C [Example 48, 4-BUTYL-1,7-DIMETHYL-1,4-DIHYDRO-9H-PYRAZOLO[4,3-b]QUINOLIN-9-ONE]
125 °C | CSCCn1c2ccc(C)cc2c(=O)c2c1cnn2C [Example 53, 1,7-DIMETHYL-4-[2-(METHYLSULFANYL)ETHYL]-1,4-DIHYDRO-9H-PYRAZOLO[4,3-b]QUINOLIN-9-ONE]
179 °C | Cc1ccc2c(c1)c(=O)c1c(cnn1C)n2CCCNS(C)(=O)=O [Example 60, N-[3-(1,7-DIMETHYL-9-OXO-1,9-DIHYDRO-4H-PYRAZOLO[4,3-b]QUINOLIN-4-YL)PROPYL]METHANESULFONAMIDE]
196 °C | Cc1ccc2c(c1)c(=O)c1c(cnn1C)n2CCCl [Example 62, 4-(2-CHLOROETHYL)-1,7-DIMETHYL-1,4-DIHYDRO-9H-PYRAZOLO[4,3-b]QUINOLIN-9-ONE]
